Data from ChEMBL document CHEMBL1133970, “Novel 3-dodecanoylindole-2-carboxylic acid inhibitors of cytosolic phospholipase A(2)” (Bioorg Med Chem Lett, 2001).
pIC50: −log10 of the molar value.

species on record: Homo sapiens; experiment: Cytosolic phospholipase A2 (c-PLA2) inhibitory potency of the compound was evaluated by measuring the calcium ionophore A-23,187-induced arachidonic acid release from human platelets; type: functional

SMILES | pIC50
CCCCCCCCCCCC(=O)c1c(C(=O)O)n(CCOc2ccc(CC(=O)O)cc2)c2ccccc12 | 5.59
CCCCCCCCCCCC(=O)c1c(C(=O)O)n(CCCCCCCC(=O)O)c2ccccc12 | 5.60
CCCCCCCCCCCC(=O)c1c(C(=O)O)n(CCSc2ccc(C(=O)O)cc2)c2ccccc12 | 5.60
CCCCCCCCCCCC(=O)c1c(C(=O)O)n(CCOc2ccc(C(=O)O)cc2)c2ccccc12 | 6.07
